Consider seven molecules from patent US8318779B2, “Lysine related derivatives as HIV aspartyl protease inhibitors” (priority 2006, dated 2012).

Where two headings read alike, the source gives them in different places.

Experiment [1] relates to wild type laboratory HIV strain (WT IIIB-2-001). As to the kind of experiment: Cellular anti-viral assay in HIV-infected MT4-LTR-EGFP cells (GFP reporter), wild type strain. Format: cell-based. Here is the method:
The compound having structural formula (III) was tested in a cellular assay using the MT4-LTR-EGFP cells for anti-viral activity.
(§1) The cellular assay was performed according to the following procedure.
(§2) HIV- or mock-infected MT4-LTR-EGFP cells were incubated for three days in the presence of various concentrations of the compound according to the invention. As reference compounds APV, IDV, RTV, NFV, TPV and LPV were used. Upon infection, the viral tat protein activates the GFP reporter. At the end of the incubation period, the GFP signal was measured. In the virus control samples (in the absence of any inhibitor) the maximal fluorescent signal was obtained. The inhibitory activity of the compounds were monitored on the virus-infected cells and were expressed as EC50. These values represent the amount of the compound required to protect 50% of the cells from virus infection.

Experiment [2] relates to clinically isolated HIV strain r13363 harboring several mutations. As to the kind of experiment: Cellular anti-viral assay in HIV-infected MT4-LTR-EGFP cells (GFP reporter), clinically isolated mutant strain. Format: cell-based. As for the experimental part:
Because of the increasing emergence of drug resistant HIV strains, the present compound was also tested for its potency against a clinically isolated HIV strain harboring several mutations. These mutations are associated with resistance to protease inhibitors and result in viruses that show various degrees of phenotypic cross-resistance to the currently commercially available drugs such as for instance saquinavir, ritonavir, nelfinavir, indinavir and amprenavir. The viral strain tested R13363 contains mutations as indicated below.
as §1, §2

Setting [3] is: Human immunodeficiency virus 1, IIIB, read-out: HIV-AVE-MT4LTREGFP-IIIB pEC50 (converted).
Where [4] appears, read: Human immunodeficiency virus 1, read-out: HIV-AVE-MT4LTREGFP-r13363 pEC50 (converted).

Turning to `CC(C)CN(C[C@@H](O)[C@H](Cc1ccccc1)NC(=O)O[C@H]1CCOC1)S(=O)(=O)c1ccc(N)cc1` [APV, amprenavir], the EC50 in experiment [1] (setting [3]) was 50.1 nM; in experiment [2] (setting [4]), 10000 nM.
In the case of `CC(C)(C)NC(=O)[C@@H]1CN(Cc2cccnc2)CCN1C[C@@H](O)C[C@@H](Cc1ccccc1)C(=O)N[C@H]1c2ccccc2C[C@H]1O` [IDV, indinavir], the results for the EC50 in experiment [1] (setting [3]) and in experiment [2] (setting [4]) were 39.8 nM and 398 nM, respectively.
On the same counts, the results for `Cc1cccc(C)c1OCC(=O)N[C@@H](Cc1ccccc1)[C@@H](O)C[C@H](Cc1ccccc1)NC(=O)[C@H](C(C)C)N1CCCNC1=O` [LPV, lopinavir] are 12.6 nM and 631 nM.
On the same counts, the results for `Cc1c(O)cccc1C(=O)N[C@@H](CSc1ccccc1)[C@H](O)CN1C[C@H]2CCCC[C@H]2C[C@H]1C(=O)NC(C)(C)C` [NFV, nelfinavir] are 63.1 nM and 1580 nM.
On the same counts, the results for `CC(C)c1nc(CN(C)C(=O)N[C@H](C(=O)N[C@@H](Cc2ccccc2)C[C@H](O)[C@H](Cc2ccccc2)NC(=O)OCc2cncs2)C(C)C)cs1` [RTV, ritonavir] are 63.1 nM and 10000 nM.
Regarding `CCC[C@@]1(CCc2ccccc2)CC(O)=C([C@H](CC)c2cccc(NS(=O)(=O)c3ccc(C(F)(F)F)cn3)c2)C(=O)O1` [TPV], in experiment [1] (reference compounds, wild type (IIIB), MT4-LTR-EGFP cells), the “HIV-AVE-MT4LTREGFP-IIIB pEC50” value is 6.3 =. In addition, in experiment [2] (reference compounds, clinically isolated HIV strain r13363, MT4-LTR-EGFP cells), the “HIV-AVE-MT4LTREGFP-r13363 pEC50” value turned out to be 6.3.
As to `COC(=O)N[C@H](C(=O)NCCCC[C@@H](CO)N(CC(C)C)S(=O)(=O)c1ccc(CN)cc1)C(c1ccccc1)c1ccccc1` [formula (III), (S)—(S)-(1-{5-[(4-Aminomethyl-benzenesulfonyl)-isobutyl-amino]-6-hydroxy-hexylcarbamoyl}-2,2-diphenyl-ethyl)-carbamic acid methyl ester], the EC50 is 31.6 nM in experiment [1] (Human immunodeficiency virus 1, 72 h, wild type (IIIB), MT4-LTR-EGFP cells, three days incubation, read-out: pEC50—IIIB (converted)) and 31.6 nM in experiment [2] (Human immunodeficiency virus 1, 72 h, read-out: pEC50-r13363 (converted)). Moreover, in experiment [1] (MT4-LTR-EGFP cells, WT IIIB-2-001), the “anti-HIV activity against wild type laboratory HIV strain” value was “potent anti-HIV activity”.
